Reference: BindingDB's records for patent US20250144094 (Erasca, 2025)

target: T1, Serine/threonine-protein kinase ULK1 (Homo sapiens, UniProt O75385); experiment: ADP Glo Kinase Activity Assay
T1 sequence (O75385 whole entry): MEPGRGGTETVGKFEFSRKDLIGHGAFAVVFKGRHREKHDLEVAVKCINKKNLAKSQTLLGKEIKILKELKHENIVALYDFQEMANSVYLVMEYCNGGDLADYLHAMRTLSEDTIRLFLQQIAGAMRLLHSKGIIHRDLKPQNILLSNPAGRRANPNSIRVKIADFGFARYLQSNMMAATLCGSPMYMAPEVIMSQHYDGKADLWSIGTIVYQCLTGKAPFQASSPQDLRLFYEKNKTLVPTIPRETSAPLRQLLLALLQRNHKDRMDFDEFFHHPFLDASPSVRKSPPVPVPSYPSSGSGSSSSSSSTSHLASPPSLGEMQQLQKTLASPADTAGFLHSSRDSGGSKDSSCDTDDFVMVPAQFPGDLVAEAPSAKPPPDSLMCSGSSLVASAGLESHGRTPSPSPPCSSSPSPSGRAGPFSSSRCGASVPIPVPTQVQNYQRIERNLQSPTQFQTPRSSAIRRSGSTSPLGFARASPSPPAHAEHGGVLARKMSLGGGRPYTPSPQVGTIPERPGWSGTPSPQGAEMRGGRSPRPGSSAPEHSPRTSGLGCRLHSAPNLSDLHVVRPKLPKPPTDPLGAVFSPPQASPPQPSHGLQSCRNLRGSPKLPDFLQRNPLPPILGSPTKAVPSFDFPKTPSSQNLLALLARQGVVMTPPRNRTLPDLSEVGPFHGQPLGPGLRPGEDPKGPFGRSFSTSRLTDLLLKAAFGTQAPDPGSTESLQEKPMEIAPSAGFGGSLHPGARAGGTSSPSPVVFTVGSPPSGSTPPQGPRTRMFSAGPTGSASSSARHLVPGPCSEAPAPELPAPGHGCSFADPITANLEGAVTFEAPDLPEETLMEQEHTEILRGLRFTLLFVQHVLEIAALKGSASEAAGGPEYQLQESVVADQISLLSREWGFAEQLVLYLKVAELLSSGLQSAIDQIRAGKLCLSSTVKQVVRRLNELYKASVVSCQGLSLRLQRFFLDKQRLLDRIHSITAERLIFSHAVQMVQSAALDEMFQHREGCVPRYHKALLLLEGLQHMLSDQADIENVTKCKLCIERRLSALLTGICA
Method: (§1) Table 3: ULK1 inhibitor potency was determined using the luminescent ADP Glo Kinase Assay (Promega), a universal ADP detection system that measures kinase activity by quantifying the amount of ADP produced during a kinase reaction. ULK1 kinase reactions are performed in a standard 96-well microplate (20 uL reaction volume) at 25° C. for 40 minutes in the presence or absence of the test compound (12-point dilution series starting at 10 uM). Addition of MBP substrate and ATP initiates the kinase reaction.The standard ADP Glo assay is performed in two steps. In step one, following the kinase reaction, an equal volume of ADP-Glo™ Reagent (20 uL) is added to terminate the kinase reaction and deplete the remaining ATP. In the second step, the Kinase Detection Reagent (10 uL) is added to simultaneously convert ADP to ATP and allow the newly synthesized ATP to be measured using a luciferase/luciferin reaction. Step two of the ADP Glo assay is performed in a white 384-well plate (20 uL final volume). Thirty minutes after the addition of the Detection reagent, light generated from the luciferase reaction is measured (1 second exposure) using a microplate compatible luminometer (CLARIOstar, BMG Labtech).Inhibition of ULK1 kinase activity is determined for each test compound by comparison to DMSO only control wells.

| IC50 | SMILES |
| --- | --- |
| < 10 nM | CN1Cc2ccc(Nc3ncc(C(F)(F)F)c(-c4cc(S(C)(=O)=O)cs4)n3)cc2C1 [US20250144094, Example 81] |
| < 10 nM | CN1CCc2cc(Nc3ncc(C(F)(F)F)c(-c4cc(S(C)(=O)=O)cs4)n3)ccc2C1 [US20250144094, Example 106] |
| < 10 nM | CS(=O)(=O)c1csc(-c2nc(Nc3cn(C4CNC4)nc3C3CC3)ncc2C(F)(F)F)c1 [US20250144094, Example 130] |
| < 10 nM | O=C1NCCS(=O)(=O)c2cc(-c3nc(Nc4cc5c(cc4F)CNCC5)ncc3C(F)(F)F)sc21 [US20250144094, Example 134] |
| < 10 nM | COCCS(=O)(=O)c1csc(-c2nc(Nc3cc4c(cc3C3CC3)CNCC4)ncc2C(F)(F)F)c1 [US20250144094, Example 65] |
| < 10 nM | CN1CCN(c2ccc(Nc3ncc(C(F)(F)F)c(-c4cc(S(C)(=O)=O)cs4)n3)c(Cl)c2)CC1 [US20250144094, Example 112] |

target: T2, Serine/threonine-protein kinase ULK1 [1-649] (UniProt O75385); experiment: ADP Glo Kinase Activity Assay
T2 construct: 1-649
T2 sequence (O75385 whole entry): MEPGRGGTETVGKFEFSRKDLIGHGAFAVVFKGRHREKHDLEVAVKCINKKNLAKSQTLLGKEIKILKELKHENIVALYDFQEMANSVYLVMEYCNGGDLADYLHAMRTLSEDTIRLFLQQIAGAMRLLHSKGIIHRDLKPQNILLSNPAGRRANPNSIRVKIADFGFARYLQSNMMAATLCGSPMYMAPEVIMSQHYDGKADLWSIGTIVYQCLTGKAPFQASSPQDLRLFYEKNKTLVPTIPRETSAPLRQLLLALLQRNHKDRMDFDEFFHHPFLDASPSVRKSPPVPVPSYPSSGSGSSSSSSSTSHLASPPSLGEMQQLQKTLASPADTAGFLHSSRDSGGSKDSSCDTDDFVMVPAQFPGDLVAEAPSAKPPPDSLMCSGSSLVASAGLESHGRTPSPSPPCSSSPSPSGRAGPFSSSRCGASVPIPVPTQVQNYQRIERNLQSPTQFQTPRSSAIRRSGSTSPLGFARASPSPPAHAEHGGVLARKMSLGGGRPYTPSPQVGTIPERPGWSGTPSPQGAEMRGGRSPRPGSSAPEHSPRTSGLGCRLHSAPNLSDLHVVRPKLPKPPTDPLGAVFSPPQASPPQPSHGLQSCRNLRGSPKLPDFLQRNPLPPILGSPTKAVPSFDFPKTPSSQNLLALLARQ
Method: as §1, with “4:” for “3:”, “μL” for “uL”, “μM).” for “uM).”, “peptide” for “MBP”, “μL)” for “uL)”, “wells. Inhibitor IC50 was calculated by plotting the change in luminescence after 30 minutes (response) versus inhibitor concentration (in log molar) then applying the four-parameter variable slope curve fit (GraphPad Prism).” for “wells.”

| IC50 | SMILES |
| --- | --- |
| < 5 nM | C[C@@H]1CN(c2ccc(Nc3ncc(C(F)(F)F)c(-c4cc5c(s4)C(=O)N(C)CCS5(=O)=O)n3)c(C3CC3)c2)CCN1 [US20250144094, Example 365] |
| < 5 nM | CCN1CCc2cc(Nc3ncc(C(F)(F)F)c(-c4cc5c(s4)C(=O)N(CC(F)(F)F)CCS5(=O)=O)n3)c(C3CC3)cc2C1 [US20250144094, Example 245] |
| < 5 nM | O=C1c2sc(-c3nc(Nc4cc5c(cc4Cl)CNCC5)ncc3C(F)(F)F)cc2S(=O)(=O)CCN1CC1CC1 [US20250144094, Example 153] |
| < 5 nM | CCN1CCc2cc(Nc3ncc(C(F)(F)F)c(-c4cc5c(s4)C(=O)N(C4CCC4)CCS5(=O)=O)n3)c(C3CC3)cc2C1 [US20250144094, Example 226] |
| < 5 nM | CCc1cc2c(cc1Nc1ncc(C(F)(F)F)c(-c3cc4c(s3)C(=O)N(C3COC3)CCS4(=O)=O)n1)CCNC2 [US20250144094, Example 229] |
| < 5 nM | NC(=O)CN1CCc2cc(Nc3ncc(C(F)(F)F)c(-c4cc5c(s4)C(=O)N(C4CC4)CCS5(=O)=O)n3)c(C3CC3)cc2C1 [US20250144094, Example 278] |
| 7.5 nM | CCc1cc(C2CCNCC2)ccc1Nc1ncc(C(F)(F)F)c(-c2cc3c(s2)C(=O)N(C2CC2)CCS3(=O)=O)n1 [US20250144094, Example 281] |
| < 5 nM | CN1CCS(=O)(=O)c2cc(-c3nc(Nc4ccc(N5CC6CC(C5)N6)cc4C4CC4)ncc3C(F)(F)F)sc2C1=O [US20250144094, Example 381] |
| < 5 nM | O=C1c2sc(-c3nc(Nc4ccc(N5CCN(CC6CC6)CC5)cc4C4CC4)ncc3C(F)(F)F)cc2S(=O)(=O)CCN1C1CC1 [US20250144094, Example 251] |
| < 5 nM | CN1CCN(c2ccc(Nc3ncc(C(F)(F)F)c(-c4cc5c(s4)C(=O)N(C)CCS5(=O)=O)n3)c(Cl)c2)CC1 [US20250144094, Example 194] |
| < 5 nM | O=C1c2sc(-c3nc(Nc4cc5c(cc4C4CC4)CN(CCF)CC5)ncc3C(F)(F)F)cc2S(=O)(=O)CCN1C1COC1 [US20250144094, Example 290] |
